{"source": "paper PMC7922224", "about": "“Searching for Small Molecules as Antibacterials: Non-Cytotoxic Diarylureas Analogues of Triclocarban” (Antibiotics, 2021)", "origin": "cited, not measured here", "set-up_in_all_cases": "method as in earlier work", "conditions_in_all_cases": "reference antibiotic, values according to CLSI (2012) ref 26; cited from earlier work", "key": {"S. aureus ATCC 29213": {"tested_on": "S. aureus ATCC 29213"}, "E. faecalis ATCC 29212": {"tested_on": "E. faecalis ATCC 29212"}, "E. coli 25922": {"tested_on": "E. coli 25922"}, "P. aeruginosa ATCC 27853": {"tested_on": "P. aeruginosa ATCC 27853"}, "K. pneumoniae ATCC 13883": {"tested_on": "K. pneumoniae ATCC 13883"}}}
{"molecule": "CCn1cc(C(=O)O)c(=O)c2cc(F)c(N3CCNCC3)cc21", "note": "[NRF, norfloxacin]", "values": [{"measurement": "MIC S.a. 29213", "setting": "S. aureus ATCC 29213", "result": "0.5 to 2", "unit": "µg/mL"}, {"measurement": "MIC E.f. 29212", "setting": "E. faecalis ATCC 29212", "result": "2 to 8", "unit": "µg/mL"}, {"measurement": "MIC E.c. 25922", "setting": "E. coli 25922", "result": "0.03 to 0.12", "unit": "µg/mL"}, {"measurement": "MIC P. a. 27853", "setting": "P. aeruginosa ATCC 27853", "result": "1 to 4", "unit": "µg/mL"}, {"measurement": "MIC K.p. 13883", "setting": "K. pneumoniae ATCC 13883", "result": "0.5 to 1", "unit": "µg/mL"}]}
